From patent publication US6169104A, “Di-aryl ethers and their derivatives as anti-cancer agents” (Large Scale Biology Corporation, priority 1998, dated 2001) come the findings set out here.

Where two headings read alike, the source gives them in different places.

The subject of one series is Ovcar-3 (ovarian). The series is described as follows: In vitro cytotoxicity screen, alamar Blue assay. Type of series: cell-based. The conditions noted are these: Homo sapiens, 168 h, 7 days post exposure. As for the experimental part:
(§1) Human tumor cell lines were exposed continuously to varying concentrations of test agents, i.e., BTO-956, BTO-964, BTO966 and BTO-967) and the viability of the cells was measured at set time points (1, 3, and 7 days) using the alamar Blue™ assay. […] This fluorescence can be measured with a fluorimeter, whereby the signal is directly proportional to cell number.
(§2) Various tumor cell lines of human origin representing a wide diversity of cancer pheno- and genotypes were exposed in vitro to the agents to evaluate the drug's effective range. Tumor lines screened included MDA MB 231 (breast), MCF-7 (breast), MDA MB 468 (breast), Siha (squamous cell carcinoma), A549 (non-small cell lung), HL-60 (leukemia), Ovcar-3 (ovarian). The test agents were prepared in serial dilutions from 10 mM stock solutions in DMSO yielding a 66-fold dose range of 20 μM, 10 μM, 3 μM, 1 μM and 0.3 μM concentrations. In each case, cells were maintained at 37° C. under 5 percent CO2 in air. All cell lines were incubated in Dulbecco's modified Eagle medium (DMEM) supplemented with 10% heat-inactivated fetal bovine serum and graded doses of BTO-956, 964, 966, or 967. 5-Fluorouracil (5-FU) was included as a positive control in experiments with two of the cell lines. The experiments were conducted in 96-well tissue culture plates (Falcon) with an initial seeding density of 1000 cells per well in 250 μl aliquots. The next day, medium was replaced with 100 μl of drug dilutions in triplicate.
(§3) After a 7 day exposure to the various agents, the alamarBlue dye was diluted to 20% in DMEM, and 100 μl was added to each well. The cells were incubated for 8 hours until obvious color changes indicated sufficient amounts of reduced dye for quantitation. Relative cell number was evaluated by florimetry on a Millipore 2300 CytoFluor fluorescence measurement system. Measurements were taken directly from 96-well plates after excitation at 560 nm with concomitant emission at 590 nm.
A general note: Resazurin is reduced to fluorescent resorufin, in cell work by metabolically active cells.

The subject of a further series is MCF-7 (breast). Put plainly: In vitro cytotoxicity screen, alamar Blue assay. Format: cell-based. Particulars: Homo sapiens, MCF7, 168 h, 7 days post exposure. As for the experimental part:
as §1, §2, §3

Another series deals with MDA MB 231 (breast). Put plainly: In vitro cytotoxicity screen, alamar Blue assay. Format: cell-based. The conditions noted are these: Homo sapiens. As for the experimental part:
as §1, §2, §3

The test system of series [1] is A549 (non-small cell lung). The series is described as follows: In vitro cytotoxicity screen, alamar Blue assay. Type of series: cell-based. The conditions noted are these: Homo sapiens. As for the experimental part:
as §1, §2, §3

For the next series, the system named is MDA MB 468 (breast). Put plainly: In vitro cytotoxicity screen, alamar Blue assay. Format: cell-based. Particulars: Homo sapiens, 168 h, 7 days post exposure. As for the experimental part: as §1, §2, §3
Series [2] deals with Siha (squamous cell carcinoma). Put plainly: In vitro cytotoxicity screen, alamar Blue assay. Format: cell-based. Particulars: Homo sapiens, 168 h, 7 days post exposure. As for the experimental part: as §1, §2, §3
Series [3] deals with Human leukemia (HL60) cells. The series is described as follows: In vitro metabolism in human leukemia cells with and without rat liver S9. Format: cell-based. Particulars: 4 hr incubation with vs without rat liver S9, cells counted 3 days later (FIG. 2). As for the experimental part: FIG. 2 illustrates the in vitro metabolism of BTO-956, 964, 966, and 967 in human leukemia cells. In this experiments, human leukemia cells (HL60) were incubated for 4 hours in the presence of BTO-956, BTO-964, BTO-966 or BTO-967, with (closed symbols) and without (open symbols) rat liver microsome fraction S9. Following the 4 hr exposure to drug and S9, the cells were rinsed and replated at a density of 2×10^5 cells per ml, and counted 3 days later.
To test for either of these possibilities, the compounds, i.e., BTO-956, BTO-964, BTO-966 and BTO-967, were incubated with a microsomal enzyme fraction, referred to as S9.
Human leukemia (HL60) cells were used to evaluate drug metabolism. Exposure to the test article was performed in the presence and absence of S9, prepared from the liver of adult male rats given a single intraperitoneal injection of Arachlor 1254 (500 mg/kg). The S9 consisted of the 9000×G supernatant of liver homogenized in 0.25 M sucrose-100 mM phosphate buffer (pH 7.4) (Molecular Toxicology, Inc.). Cofactors were 1 mM NADP and 5 mM sodium isocitrate. On the day of exposure, cultures of cells, with or without the metabolism mixture, were incubated for 4 hours in RPMI containing 5% FBS and graded doses of BTO956, 964, 966, or 967. The test agents were prepared in serial dilutions from 10 mM stock solutions in DMSO yielding a dose range 100 μM, 50 μM, 25 μM, 10 μM and 5 μM concentrations and a final DMSO concentration of 1%. In each case, cells were maintained at 37° C. under 5 percent CO2 in air. The experiments were conducted in 6-well tissue culture plates (Falcon) with an initial seeding density of 2×10^6 cells per well in 2 ml aliquots. The test compounds were added immediately to the medium in duplicate cultures. Treatment solution was removed by a series of low-speed centrifugations to pellet the cells, followed by removal of the supernatant and resuspension of cells in fresh RPMI containing 10% FBS.

For series [4], the system named is TNF-α mRNA. Particulars: 10 μM, without LPS.
Method: (§4) The murine macrophage PU5-1.8 cell line are purchased from the American Type Culture Collection (ATCC, Rockville, Md.). Cells are grown in DMEM medium supplemented with 100 mM sodium pyruvate, 0.1 mM nonessential amino acids, 2 mM glutamine and 5 % fetal bovine serum (Life Technologies, Staten Island, N.Y.). Cells are maintained in a humidified atmosphere of 5% CO2 -95% air at 37° C. Cells are passaged twice weekly by firmly tapping the side of the flask to dislodge the adherent cells. Both nonadherent and adherent cells are passaged. Exponentially growing cells are seeded at 5×10^5 /mL, 4 mL per 60-mm dish 24 h prior to the experiment. Test compounds are delivered in 1 mL volumes of the medium added to each dish at the start of the experiment. All dishes are incubated at 37° C. in 5% CO2 -95% air for 3 h.
(§5) The Tumor Necrosis Factor (TNF-α) cDNA is obtained from the ATCC (Rockville, Md.). [α-^32 P]-dCTP (250 μCi) and nylon membranes (Hybond N) are obtained from Amersham (Arlington Heights, Ill.). […] Lipopolysaccharide (LPS) from Escherichia coli is purchased from DIFCO Laboratories (Detroit, Mich.). All plastic supplies are purchased from VWR Scientific products (San Francisco, Calif.). […]
(§6) Hybridized bands are quantified by analyzing the images obtained by using a video densitometer (Applied Imaging Corporation, Santa Clara, Calif.). […]
For series [5], the system named is TNF-α mRNA. The series is described as follows: cells. The conditions noted are these: Mus musculus, Macrophage, 3 h, read-out: inhibition of TNF-α mRNA accumulation.
Method: as §4, §5, §6
Series [6] relates to angiogenesis induced by hFGF-B in the CAM. The series is described as follows: Chick chorioallantoic membrane (CAM) assay, 14C-proline incorporation into collagenous protein. Format: in vivo, chick embryo. Here is the method:
BTO-964 [methyl 3,5-diiodo-4(4'-methoxyphenoxy) benzaldehyde], and BTO-967 [methyl 3,5-diiodo-4(4'-methoxyphenoxy)-thiobenzoate] were tested in the CAm assay. The endpoint of the CAM assay was a quantiative determination of basement membrane biosynthesis by measuring the incorporation of ^14 C-proline into Type IV collagenous protein.
The CAM assay involves the development of live chick embryos in Petri dishes under special sterile conditions. Therefore, only limited numbers of embryos can be used for evaluation of compounds in a single experiment. BTO-964 and BTO-967 was tested in separate assays. A known angiogenesis inhibitor, 2-methoxyestradiol (2-ME), was used as the positive control, and human fibroblast growth factor (hFGF) was used to induce angiogenesis in the CAM.
For testing, a minimum amount of acetone-methanol (1:1) was added to the test compounds for sterilization. The acetone-methanol mixture was then evaporated to dryness in a sterile hood. The compounds were dissolved in dimethyl sulfoxide (DMSO) first and then diluted with saline containing methylcellulose. The final concentrations were 2% DMSO and 0.5% methylcellulose. all test solutions were added to each CAM in […] aliquots.
Fresh fertile eggs were incubated for three days in a standard egg incubator. On Day 3, eggs were cracked under sterile conditions and embryos were placed in 20×100 mm plastic Petri dishes and cultivated at 37° C. in an embryo incubator with a water reservoir on the bottom shelf. Air was continuously bubbled into the water reservoir by using a small pump so that the humidity in the incubator was kept constant. Observations were made daily to ensure that all embryos were healthy. Dead or unhealthy embryos were removed from the incubator immediately to avoid contamination. On Day 9, a sterile silicone ring cup was placed on each CAM and 0.5 mCi of ^14 C-proline with or without the test compound plus 2.5 ng of hFGF dissolved in saline containing 0.5% methylcellulose was delivered into each ring cup in a sterile hood. 2-ME was tested in parallel to serve as a reference compound. After addition of test materials, the embryos were returned to the incubator and cultivation continued. On Day 12, all embryos were transferred to a cold room at 4-10° C.
Using the procedure outlined in Maragoudakis, et al., (1989) J. Pharm. Exp. Ther. 251:679-682, the embryos were placed on ice and a piece of CAM 10 mm in diameter was cut off under each ring cup and placed in a separate tube. To each tube was added 1.0 ml of phosphate-buffered saline (PBS, pH 7.3) containing 0.11 mg cycloheximide and 0.17 mg dipyridyl. The tubes were placed in a boiling water bath for 10 min and then cooled to room temperature. The PBS in each tube was discarded after centrifugation at 3000×G for 10 min. The CAM residue was washed once with 3 ml of 15% TCA and then three times with 3 ml of 5% TCA. Centrifugation was carried out as described above between each washing. At this point all non-protein bound radioactivity was removed, and the CAM containing the newly synthesized ^14 C-collagenous protein was suspended in 0.9 ml of 0.1 N NaOH and 1.1 ml of HEPES buffer at pH 7.4. The pH of the sample was neutralized with 0.8 N HCl, using phenol red as indicator.
To digest the ^14 C-collagenous protein, 7.5 units of collagenase and 500 nmol of calcium chloride in […] of HEPES buffer was added to the above samples, and mixtures were incubated at 37° C. for 4 h. The reaction was stopped by adding 1.0 ml of 20% TCA containing 5 mg of tannic acid into each tube. After vortex mixing, the samples were centrifuged at 3000×G for 10 min. An aliquot of the clear supernatant was taken for scintillation counting to quantitate the radiolabeled tripeptides corresponding to basement membrane collagen and other collagenous materials synthesized by the CAM from ^14 C-proline. The CAM pellets in each tube were solubilized in 0.5 ml of 1.0 N NaOH by boiling in a water bath for 5 min. […]

The mark [7] stands for this setting: 168 h, MDA MB 231, 7 days post exposure, read-out: IC50.
Setting [8] is: 168 h, A549, 7 days post exposure, read-out: IC50.

With `COC(=O)c1cc(I)c(Oc2ccc(OC)cc2)c(I)c1` [BTO-956, methyl 3,5-diiodo-4-(4'-methoxyphenoxy)benzoate], the IC50 was under 0.3 µM in the series on Ovcar-3 (ovarian); 5 µM in the series with MCF-7 (breast); 10 µM in the series with MDA MB 231 (breast) (setting [7]); 4 µM in series [1] (setting [8]); 0.5 µM with MDA MB 468 (breast); 0.5 µM in [2]. The “effect of metabolism by S9 on activity” value in [3] was “metabolized within the 4-hr incubation period to an inactive form”.
`COc1cc2c(c(OC)c1OC)-c1ccc(OC)c(=O)cc1[C@@H](NC(C)=O)CC2` [colchicine, Colchicine]: the “effect on TNF-α mRNA expression” value with TNF-α mRNA [4] is listed as “no effect”. In the series on TNF-α mRNA [5], the inhibition at 10 µM came out at 68%.
On to `COc1cc2c(cc1O)CC[C@@H]1[C@@H]2CC[C@]2(C)[C@@H](O)CC[C@@H]12` [2-Methoxyestradiol, 2-methoxyestradiol, reference compound], for which the “% Inhibition” value in series [6] (8.3 μg/CAM, BTO-964 experiment) amounted to 6%; in series [6] (8.3 μg/CAM, BTO-967 experiment), 9%; in series [6] (25 μg/CAM, BTO-964 experiment), 35%; in series [6] (25 μg/CAM, BTO-967 experiment) it was 20%; in series [6] (75 μg/CAM, BTO-964 experiment), 38%; in [6] (75 μg/CAM, BTO-967 experiment), 38%. Further, the “14C-Proline Incorporated into Collagenous Protein (cpm/mg protein) (mean ± S.E.)” value is recorded as 10499 ± 1372 cpm/mg_protein in series [6] (8.3 μg/CAM, BTO-964 experiment, control 11200 ± 829); 5711 ± 1469 cpm/mg_protein in series [6] (8.3 μg/CAM, BTO-967 experiment, control 6300 ± 696); 7303 ± 1424 cpm/mg_protein in [6] (25 μg/CAM, BTO-964 experiment, control 11200 ± 829); 5068 ± 1609 cpm/mg_protein in series [6] (25 μg/CAM, BTO-967 experiment, control 6300 ± 696); 6984 ± 1022 cpm/mg_protein in series [6] (75 μg/CAM, BTO-964 experiment, control 11200 ± 829); 3875 ± 891 cpm/mg_protein in series [6] (75 μg/CAM, BTO-967 experiment, control 6300 ± 696).
With `O=c1[nH]cc(F)c(=O)[nH]1` [5-FU, 5-Fluorouracil, reference compound], the IC50 in the series on MDA MB 231 (breast) (MDA-MB-231, 168 h) amounted to 10 µM; in series [1] (A549, 168 h), 5.5 µM.
For `COCc1cc(I)c(Oc2ccc(OC)cc2)c(I)c1` [BTO-966, 3,5-diiodo-4-(4'-methoxyphenoxy)benzyl methyl ether], the IC50 with Ovcar-3 (ovarian) was 6.9 µM; in the series with MCF-7 (breast), 7 µM; with MDA MB 231 (breast) (setting [7]) it was 10 µM; in series [1] (setting [8]) it was over 30 µM; with MDA MB 468 (breast), 7.5 µM; in [2], over 20 µM. Further, the “effect of metabolism by S9 on activity” value in series [3] is recorded as “activated to more cytotoxic products”.

In general, IC50 refers to the concentration at which inhibition is half-maximal. For orientation: inhibition means the drop in the measured response relative to a control, in per cent. A word on the % Inhibition: it is the change of the read-out against control, counted positive when it falls.
